Test results taken from US20160176894A1, “TAXANE AND ABEO-TAXANE ANALOGS” (Arbor Therapeutics, LLC, priority 2013, published 2016).
Like-named read-outs stand apart in the source and are kept apart here.

Legend:
CCRF-CEM (CEM) cells = experiment: MTT-based cytotoxicity assay, CEM; assay type: cell-based, human; conditions: sensitive parental line
Description: (§1) These lines included a uterine sarcoma line, MES-SA. (Harker, W. G.; MacKintosh, F. R.; Sikic, B. I., Development and characterization of a human sarcoma cell line, MES-SA, sensitive to multiple drugs. Cancer Res. 1983, 43, 4943-4950), and its doxorubicin-resistant subline, MES-SA/DxS. (Harker, W. G.; Sikic, B. I., Multidrug (pleiotropic) resistance in doxorubicin-selected variants of the human sarcoma cell line MES-SA. Cancer Res. 1985, 45, 4091-4096). […] However, resistance to bleomycin, cisplatin, carmustine, 5-fluorouracil or methotrexate is not observed. MES-SA/Dx5 cells express high levels of ABCB 1 (MDR1) mRNA and its gene product, the P-glycoprotein. MES-SA and MES-SA/Dx5 were purchased from the American Type Culture Collection (ATCC, Manassas, Va.).
(§2) The second set of cells tested, CCRF-CEM or simply CEM, were derived from the blood of a patient with acute lymphobiastic leukemia. (Foley, G. E.; Lazarus, H.; Farber, S.; Uzman, B. G.; Boone, B. A.; McCarthy, R. E., Continuous Culture of Human Lymphoblasts from Peripheral Blood of a Child with Acute Leukemia. Cancer 1965, 18, 522-529). The subline CEM/VLB100 was developed to be resistant to up to vinblastine at 100 ng/ml. (Beck, W. T.; Mueller, T. J.; Tanzer, L. R., Altered surface membrane glycoproteins in Vinca alkaloid-resistant human leukemic lymphoblasts. Cancer Res. 1979, 39, 2070-2076). Drug resistance is achieved by overexpression of the MDR1 gene. Resistance in the CEM subline designated CEM/VM-1-5, however, is “atypical.” (Danks, M. K.; Yalowich, J. C.; Beck, W. T., Atypical multiple drug resistance in a human leukemic cell line selected for resistance to teniposide (VM-26). Cancer Res. 1987, 47, 1297-1301). The classes of drugs included in the “classic” multiple drug resistance phenotype are Vinca alkaloids, anthracyclines, epipodophyllotoxins and antibiotics. However, CEM/VM-1-5 cells retain sensitivity to the Vinca alkaloids despite resistance and cross-resistance to etoposide, anthracyclines and mitoxantrone. (Danks, M. K.; Schmidt, C. A.; Cirtain, M. C.; Suttle, D. P.; Beck, W. T., Altered catalytic activity of and DNA cleavage by DNA topoisomerase II from human leukemic cells selected for resistance to VM-26. Biochemistry 1988, 27, 8861-8869). Resistance in CEM/VM-1-5 cells is effected by over expression of the ABCC1 (MRP1) gene. CEM, CEM/VLB100 and CEM/VM-1-5 cells were obtained from Dr. WT Beck, University of Illinois at Chicago.

[1] = test system: MES-SA uterine sarcoma line; experiment: MTT-based cytotoxicity assay, MES-SA; assay type: cell-based, human; conditions: sensitive parental line
Description: as §1

[2] = test system: MES-SA/Dx5 doxorubicin-resistant subline; experiment: MTT-based cytotoxicity assay, MES-SA/Dx5; assay type: cell-based, human; conditions: for Degree of resistance (MES-SA/Dx5): IC50 of the resistant line divided by IC50 of sensitive MES-SA cells; for IC50: MTT, multidrug resistant subline (MDR1/P-glycoprotein)
Description: as §1

CEM/VLB100 cells = experiment: MTT-based cytotoxicity assay, CEM/VLB100; assay type: cell-based, human; conditions: for Degree of resistance (CEM/VLB100): IC50 of the resistant line divided by IC50 of sensitive CEM cells; for IC50: vinblastine-resistant subline (MDR1)
Method: as §2

[3] = test system: cancer cell lines, both MDR expressing and non-MDR expressing; experiment: MTS proliferation assay, cell line panel (general statements); assay type: cell-based
Method: (§3) Day 1: Cells were plated in appropriate growth medium at 5×10^3 per well in 100 μL in 96 well tissue culture plates, Falcon, one plate for each drug to be tested. Column 1 was blank; it contained medium, but no cells. The plates were incubated overnight at 37° C. in 5% CO2 to allow attachment. Day 2: Drug diluted in culture media was added to the cells at a concentration of 0.005 nM to 10 μM in quadruplicate. After 48-72 hours of drug exposure, the MTS agent was added to all wells and incubated 1-6 hrs (37° C., 5% CO2), depending on cell type, as per CellTiter 96® AQueous Non-Radioactive Cell Proliferation Assay (MTS), Promega. Plates were processed using a Bio-Tek Synergy HT Multi-detection microtiter plate reader at 490 nanometer wavelength and data were processed with KC4V.3 software. Data plots of drug concentration vs. absorbance were plotted and IC50 values were extrapolated for each of the tested compounds.

HCT-15 (MDR+) = experiment: MTS proliferation assay, HCT-15; assay type: cell-based; conditions: read-out: MTS-6: 72 hr proliferation IC50, HCT-15
Method: as §3

tubulin = tubulin protein assembly assay; assay type: biochemical; conditions: for ED50/ED50 (Paclitaxel): ratio to paclitaxel; for EC50: tubulin assembly, read-out: ED50 (the source's name)
A2780-A5 = experiment: MTS proliferation assay, A2780-A5; assay type: cell-based; conditions: read-out: MTS-6: 72 hr proliferation IC50, A2780-A5
Method: as §3

A2680-DXR1 (MDR+) = experiment: MTS proliferation assay, A2680-DXR1; assay type: cell-based; conditions: 72 hr, read-out: MTS-6: 72 hr proliferation IC50, A2680-DXR1
Method: as §3

MV522 = experiment: MTS proliferation assay, MV522; assay type: cell-based; conditions: read-out: MTS-6: 72 hr proliferation IC50, MV522
Method: as §3

MDAH2774 = experiment: MTS proliferation assay, MDAH2774; assay type: cell-based; conditions: read-out: MTS-6: 72 hr proliferation IC50, MDAH2774
Method: as §3

22Rv1 = experiment: MTS proliferation assay, 22Rv1; assay type: cell-based; conditions: read-out: MTS-6: 72 hr proliferation IC50, 22Rv1
Method: as §3

CEM/VM-1-5 cells = experiment: MTT-based cytotoxicity assay, CEM/VM-1-5; assay type: cell-based, human; conditions: for Degree of resistance (CEM/VM-1-5): IC50 of the resistant line divided by IC50 of sensitive CEM cells; for IC50: MTT, atypical MDR subline (ABCC1/MRP1)
Method: as §2

KBV = experiment: MTS proliferation assay, KBV; assay type: cell-based; conditions: MDR positive
Method: as §3

MESSA/DOX = experiment: MTS proliferation assay, MESSA/DOX; assay type: cell-based; conditions: Homo sapiens, MDR positive
Method: as §3

MDAMB435s = experiment: MTS proliferation assay, MDAMB435s; assay type: cell-based; conditions: Homo sapiens, MDA-MB-435S, MDR negative, extrapolated outside tested range
Method: as §3

HT29 = experiment: MTS proliferation assay, HT29; assay type: cell-based; conditions: Homo sapiens, HT-29, MDR negative, extrapolated outside tested range
Method: as §3

DU145 = experiment: MTS proliferation assay, DU145; assay type: cell-based; conditions: Homo sapiens, DU-145, MDR negative, extrapolated outside tested range
Method: as §3

KB = experiment: MTS proliferation assay, KB; assay type: cell-based; conditions: Homo sapiens, MDR negative, extrapolated outside tested range
Method: as §3

MV522/Mdr1 = experiment: MTS proliferation assay, MV522/Mdr1; conditions: read-out: IC50 MV522/Mdr1
Method: as §3

SKNAS = experiment: MTS proliferation assay, SKNAS; assay type: cell-based; conditions: Homo sapiens, SK-N-AS, MDR negative, extrapolated outside tested range
Method: as §3

Compound | IC50 (CCRF-CEM (CEM) cells) [nM] | IC50 [1] [nM] | Degree of resistance (MES-SA/Dx5) [2] | IC50 [2] [nM] | Degree of resistance (CEM/VLB100) (CEM/VLB100 cells) | IC50 (CEM/VLB100 cells; MTT) [nM] | ED50/ED50 (Paclitaxel) (tubulin) | EC50 (tubulin) [nM] | Degree of resistance (CEM/VM-1-5) (CEM/VM-1-5 cells) | IC50 (CEM/VM-1-5 cells) [nM] | IC50 ([1]; Homo sapiens, MES-SA) [nM] | IC50 ([2]; Homo sapiens, MES-SA/Dx5) [nM] | IC50 (CEM/VM-1-5 cells; Homo sapiens) [nM] | also measured
C=CC1OC2CC3OCC3(OC(C)=O)C3C(OC(=O)c4ccccc4)C4(O)CC(OC(=O)C(O)C(CC(C)C)NC(=O)OC(C)(C)C)C(C)=C(C(OC(C)=O)C(O1)C23C)C4(C)C (mixture of isomers) [10-αTX (14a.2)] | 14 ± 5 | 30 ± 14 | 1.1 ± 0.3 | 34 ± 24 | 3 ± 0.6 | 43 ± 23 |  |  |  |  |  |  |  | 
C=CC1OC2CC3OCC3(OC(C)=O)C3C(OC(=O)c4ccccc4)C4(C(C)(C)O)CC(OC(=O)C(O)C(CC(C)C)NC(=O)OC(C)(C)C)C(C)=C4C(OC(C)=O)C(O1)C23C (stereo not drawn) [10-αAT (15a.2)] | 5 ± 3 | 9.5 ± 0.7 | 1.6 ± 0.8 | 15 ± 8 | 4 ± 0 | 19 ± 9 | 0.53 | 1580 ± 460 | 1.3 ± 1.4 | 5 ± 4 |  |  |  | IC50 [3]: < 1000 nM; IC50 (HCT-15 (MDR+); 72 hr): 2.4 nM; affinity for tubulin (in words) (tubulin; compared to several recognized tubulin binding agents): surprisingly great affinity for tubulin; IC50 (A2780-A5; 72 hr): 0.282 nM; IC50 (A2680-DXR1 (MDR+)): 15 nM; IC50 (MV522; 72 hr): 3.5 nM; IC50 (MDAH2774; 72 hr): 0.18 nM; IC50 (22Rv1; 72 hr): 5.7 nM
C=C[C@H]1O[C@H]2C[C@H]3OC[C@@]3(OC(C)=O)[C@H]3[C@H](OC(=O)c4ccccc4)[C@]4(C(C)(C)O)C[C@H](OC(=O)[C@H](O)[C@H](CC(C)C)NC(=O)OC(C)(C)C)C(C)=C4[C@@H](OC(C)=O)[C@H](O1)[C@]23C [10-βAT (15b.2)] | 112 ± 60 | 432 ± 261 | 0.75 ± 0.07 | 328 ± 173 | 4 ± 0.3 | 453 ± 293 |  |  | 0.9 ± 0.5 | 77 ± 6 |  |  |  | 
C=CC1OC2CC3OCC3(OC(C)=O)C3C(OC(=O)c4ccccc4)C4(O)CC(OC(=O)C(O)C(CC(C)C)NC(=O)OC(C)(C)C)C(C)=C(C(OC(C)=O)C(O1)C23C)C4(C)C (stereo not drawn) [10-βTX (14b.2), 10-beta taxane acrolein acetal] |  |  | 1.2 ± 0.5 |  | 3 ± 1 |  |  |  | 1.2 ± 0.3 |  | 28 ± 16 | 36 ± 34 | 9 ± 1 | IC50 (CCRF-CEM (CEM) cells; Homo sapiens, CCRF-CEM): 7.5 ± 0.7 nM; IC50 (CEM/VLB100 cells; Homo sapiens, CEM/VLB100, MTT): 22 ± 11 nM
CC(=O)O[C@@]12CO[C@@H]1C[C@H](O)[C@@]1(C)C(=O)[C@H](O)C3=C(C)[C@@H](OC(=O)[C@H](O)[C@@H](NC(=O)OC(C)(C)C)c4ccccc4)C[C@@](O)([C@@H](OC(=O)c4ccccc4)[C@H]21)C3(C)C [Docetaxel] |  |  |  |  |  |  | 1.07 | 3180 ± 450 |  |  |  |  |  | 
CC(=O)O[C@H]1C(=O)[C@@]2(C)[C@H]([C@H](OC(=O)c3ccccc3)[C@]3(O)C[C@H](OC(=O)[C@H](O)[C@@H](NC(=O)c4ccccc4)c4ccccc4)C(C)=C1C3(C)C)[C@]1(OC(C)=O)CO[C@@H]1C[C@@H]2O [Paclitaxel] |  |  | 3105 ± 2416 |  |  | 3030 |  |  | 4 | 8 | 9 ± 7 | 19400 ± 204 | < 11 | IC50 (KBV): ≥ 500 nM; IC50 (MESSA/DOX): ≥ 500 nM; IC50 (HCT-15 (MDR+); Homo sapiens, HCT-15, 72 hr): 311 nM; IC50 (MDAMB435s): < 0.002 nM; IC50 (A2780-A5; 72 h): < 0.002 nM; IC50 (A2680-DXR1 (MDR+)): 3580 nM; IC50 (HT29): < 0.002 nM; IC50 (MV522; MV522, 72 h): 1.71 nM; IC50 (MDAH2774; Homo sapiens, MDAH 2774, 72 h): 0.015 nM; IC50 (DU145): < 0.002 nM; IC50 (KB): < 0.002 nM; IC50 (22Rv1; Homo sapiens, 22Rv1, 72 h): 1.7 nM; IC50 (MV522/Mdr1): ≥ 500 nM; IC50 (SKNAS): < 0.002 nM
CC[C@]1(O)C[C@@H]2CN(CCc3c([nH]c4ccccc34)[C@@](C(=O)OC)(c3cc4c(cc3OC)N(C)[C@H]3[C@@](O)(C(=O)OC)[C@H](OC(C)=O)[C@]5(CC)C=CCN6CC[C@]43[C@@H]65)C2)C1 [Vinblastine] |  |  | 38.5 ± 0.7 |  | 255 ± 127 |  |  |  | 1.2 ± 0.07 |  | […] | 43 ± 12 | 1.3 ± 0.9 | IC50 (CCRF-CEM (CEM) cells; Homo sapiens, CCRF-CEM): 1 ± 0.8 nM; IC50 (CEM/VLB100 cells; Homo sapiens, CEM/VLB100, MTT): 227 ± 77 nM
Doxorubicin | 14 | 2 | 49 | 97 | 150 | 2100 |  |  | 219 | 3060 |  |  |  | 
